Laboratory results as given in US10064838B2, “Method for treating tau-associated diseases using tetrahydropyranol derivatives” (NATIONAL TAIWAN NORMAL UNIVERSITY, priority 2016, dated 2018).

Experiments:
[1] = MTT cytotoxicity in HEK-293 cells; type: cell-based; details: human, 24 h treatment, read-out: half maximal inhibitory concentration (IC50), cytotoxicity
Procedure: (§1) The HEK-293 cells and SH-SY5Y cells were seeded into a 48-well plate (5×10^4), grown for 24 h, and treated with 0.1 μM, 1 μM, 10 μM, 100 μM of compound (A), compound (B), or compound (C) individually for 24 h. Then 20 μL of MTT (5 mg/mL dissolved in PBS) was added for 2 h and the full wavelength microplate spectrophotometer was used for detecting the absorbance of the purple formazan at 570 nm.
(§2) As a result, the cytotoxicities of compound (A), compound (B), and compound (C) are low and not harmful to the cells.

[2] = MTT cytotoxicity in SH-SY5Y cells; type: cell-based; details: human, 24 h treatment, read-out: half maximal inhibitory concentration (IC50), cytotoxicity
Procedure: as §1, §2

ΔK280 tauRD-DsRed = target: T1, ΔK280 tauRD-DsRed (Homo sapiens, UniProt P10636, DEL597-597); experiment: Inhibition of ΔK280 tauRD-DsRed aggregation (DsRed fluorescence, high content analysis); type: cell-based; details: 8 h pretreatment, Dox 3 days, ΔK280 tauRD-DsRed 293 cells
T1 construct: tauRD: Gln^244-Glu^372 of the longest tau^441 isoform; expressed in transfected cells; host or cells: HEK-293 (Tet-On, doxycycline-induced)
T1 sequence (P10636 with tags, fused parts or gaps isoform P10636-8 DEL280-280): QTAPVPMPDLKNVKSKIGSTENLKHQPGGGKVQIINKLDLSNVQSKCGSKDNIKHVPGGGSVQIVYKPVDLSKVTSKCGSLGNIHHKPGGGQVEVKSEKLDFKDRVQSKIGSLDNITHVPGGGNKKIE
Excerpt: We used human embryonic kidney HEK-293 (cultured with DMEM supplemented with 10% FBS) and neuroblastoma SH-SY5Y (cultured with DMEM F12 supplemented with 10% FBS) cells expressing a DsRed-tagged pro-aggregation mutant (ΔK280) of the C-terminal repeat domain of tau (tauRD: Gln^244-Glu^372 of the longest tau^441 isoform). The recombinant tauRD-DsRed construct was under the control of a hybrid human cytomegalovirus (CMV)/TetO2 promoter that can be induced by adding doxycycline. The Tet-On ΔK280 tauRD-DsRed 293 and SH-SY5Y cells were grown in medium containing blasticidin (5 μg/mL) and hygromycin (100 μg/mL) and were used for the following evaluation.
ΔK280 tauRD-DsRed 293 cells were seeded into 96-well plates, grown for 24 h, and pretreated with 0.1, 1, 10 μM of congo red (a known tau aggregation inhibitor), compound (A), compound (B), and compound (C) for 8 h. Then doxycycline (Dox; 1 μg/mL) was added for 3 days to induce ΔK280 tauRD-DsRed expression and DsRed fluorescence was assessed using a high content analysis (HCA) system.
The DsRed fluorescence of ΔK280 tauRD-DsRed fusion protein was used to reflect the aggregation condition of ΔK280 tauRD. Misfolding of fused DsRed occurred when ΔK280 tauRD aggregated, and thus decreasing the DsRed fluorescence. Accordingly, inhibition of ΔK280 tauRD aggregation may improve the DsRed misfolding and increase DsRed fluorescence.

[3] = Cytotoxicity in 293 cells expressing ΔK280 tauRD-DsRed fusion protein; type: cell-based; details: human, ΔK280 tauRD-DsRed 293 cells
[4] = test system: ΔK280 tauRD-DsRed 293 cells; experiment: ROS level (DCFH-DA, flow cytometry) in induced ΔK280 tauRD-DsRed 293 cells; type: cell-based, human; details: 10 μM, 8 h pretreatment, Dox 3 days
Procedure: (§3) ΔK280 tauRD-DsRed 293 cells were seeded into 12-well plates, grown for 24 h, and pretreated with 10 μM of congo red, compound (A), compound (B), and compound (C) respectively for 8 h. Then, doxycycline (1 μg/mL) was added for 3 days to induce ΔK280 tauRD-DsRed expression.
Next, uninduced cells, doxycycline-induced but compound-untreated cells, and doxycycline-induced and compound-treated cells were incubated with 2′,7′-dichlorodihydrofluorecein diacetate (DCFH-DA) in 37° C. for 30 minutes, and then washed with PBS. The excited green fluorescence intensity under 492-495/517-527 nm of excitation/emission wavelength was measured using flow cytometry (BD) to evaluate the ROS level.

caspase 3 = experiment: Caspase 3 activity (Ac-DEVD-AMC) in induced ΔK280 tauRD-DsRed 293 cells; type: cell-based, human; details: 10 μM, 8 h pretreatment, Dox 3 days
Procedure: as §3
In addition, the caspase 3 activity of uninduced cells, doxycycline-induced but compound-untreated cells, and doxycycline-induced and compound-treated cells were measured using Caspase 3 Assay Kit (Sigma). 10^6 cells in each group were harvested and 100 μL of lysis buffer was added, incubated on the ice for 20 minutes, and then, Ac-DEVD-AMC substrate was added into each group. The release of the fluorescent AMC was recorded under 360/460 nm of excitation/emission wavelength using an FLx800 microplate fluorescence reader (Bio-Tek). The caspase 3 activity was calculated using an AMC standard curve.

[5] = test system: ΔK280 tauRD-DsRed SH-SY5Y cells; experiment: Neurite growth in induced ΔK280 tauRD-DsRed SH-SY5Y cells; type: cell-based, human; details: 10 μM, 8 h pretreatment, Dox 7 days, retinoic acid-differentiated
Procedure: ΔK280 tauRD-DsRed SH-SY5Y tauRD-DsRed cells were seeded in 6-well plate (1×10^5/well) in a medium containing all-trans retinoic acid (10 μM), grown for 24 h, and pretreated with 10 μM of congo red, compound (A), compound (B), and compound (C) for 8 h; after which, ΔK280 tauRD-DsRed expression was induced with 1 μg/mL doxycycline for 7 days. The cells were then fixed in 4% paraformaldehyde, permeabilized with 0.1% Triton X-100, blocked in 3% BSA, stained with the primary antibody anti-TUBB3 (against neuronal Class III β-tubulin) (1:1000; Convance) and with a secondary anti-rabbit Alexa Fluor® 555 antibody (1:500; Molecular Probes), and then incubated at room temperature for 3 h. Nuclei were counterstained with 4′,6-diamidino-2-phenylindole (DAPI). The total outgrowth in the untreated cells, cells treated with congo red, compound (A), compound (B), and compound (C) were assessed using MetaMorph image acquisition and analysis software.

Which IC50 at 24 h [1] does the source give for CCOC(=O)[C@@H]1OC(O)[C@H](C)[C@@H](c2ccc(OC)cc2)[C@@H]1[N+](=O)[O-] (some centres unmarked) [compound (A)] here?
Its IC50 at 24 h is 128 µM.

And the IC50 at 24 h [2]?
Its IC50 at 24 h is 267 µM.

What about the “DsRed fluorescence intensity relative to untreated cells (100%)” value (ΔK280 tauRD-DsRed; 1-10 μM) of the same compound?
Its value is 105-110%.

What about the IC50 at 80 h [3] of the same compound?
Its IC50 at 80 h is 32 µM.

With CCOC(=O)[C@@H]1OC(O)[C@H](C)[C@@H](c2cccs2)[C@@H]1[N+](=O)[O-] (some centres unmarked) [compound (B)] as the compound, how does the IC50 at 24 h [1] read?
Its IC50 at 24 h is 135 µM.

And the IC50 at 24 h [2]?
The IC50 at 24 h was 273 µM.

What about the “DsRed fluorescence intensity relative to untreated cells (100%)” value (ΔK280 tauRD-DsRed; 10 μM) of the same compound?
The value was 111%.

And the IC50 at 80 h [3]?
The IC50 at 80 h was 42 µM.

With CCOC(=O)[C@@H]1OC(O)[C@H](C)[C@@H](c2ccccc2)[C@@H]1[N+](=O)[O-] (some centres unmarked) [compound (C)] as the compound, how does the IC50 at 24 h [1] read?
The IC50 at 24 h was 135 µM.

And the IC50 at 24 h [2]?
The IC50 at 24 h was 275 µM.

What about the “DsRed fluorescence intensity relative to untreated cells (100%)” value (ΔK280 tauRD-DsRed; 1-10 μM) of the same compound?
The value was 106-113%.

And the IC50 at 80 h [3]?
Its IC50 at 80 h is 42 µM.

For Nc1c(/N=N/c2ccc(-c3ccc(/N=N/c4cc(S(=O)(=O)O)c5ccccc5c4N)cc3)cc2)cc(S(=O)(=O)O)c2ccccc12 [congo red], which “DsRed fluorescence intensity relative to untreated cells (100%)” value (ΔK280 tauRD-DsRed; 10 μM) is on record?
Its value is 108%.

And the IC50 at 80 h [3]?
The IC50 at 80 h was 60 µM.

What about the “ROS level (uninduced cells 100%; induced untreated 110%)” value [4] of the same compound?
The value was 93%.

What about the “caspase 3 activity (uninduced cells 100%; induced untreated 129%)” value (caspase 3) of the same compound?
The value was 63%.

And the “neurite growth (uninduced cells 100%; induced untreated 89%)” value [5]?
The value was 99%.
